Consider 2 substances from patent US11077167B2, “Agent for promoting skeletal muscle injury repair” (Osaka University, priority 2017, dated 2021).

The subject of this assay is angiogenesis. As to the kind of experiment: Angiogenic activity. To be noted: truncated peptides compared with SVVYGLR; confirmed by the present inventors, no method given.

In the case of SVVYGL, the angiogenic activity result was “retain the angiogenic activity of SVVYGLR”.
Then VVYGLR, with “retain the angiogenic activity of SVVYGLR”.
